In patent US20220280450A1, “PREVENTION AND TREATMENT OF CORONAVIRUS AND RELATED RESPIRATORY INFECTIONS” (PhilERA New Zealand Ltd., priority 2021, published 2022):
Several values for one entry are separate records, joined by “and”; a condition that tells them apart may be missing. Equal values may be shown once.

Experiments:
P-gp = assay: Permeability in Caco-2 barrier model; details: human
Method: (§1) Digoxin was used as marker to check for Pgp activity in the cultures. […] Samples were recovered from receptor compartments after 0, 15, 30, 45, 60, and 120 minutes, and further analyzed by liquid scintillation counting. Samples were also recovered a time 0 and 120 minutes from the donor compartments for mass balance evaluation. Each condition was performed in 3 replicated transwell filters in the presence of the Caco-2 barrier.

Pgp [1] = assay: Permeability in Caco-2 barrier model; details: human
Method: as §1

Pgp [2] = target: Pgp (Homo sapiens, UniProt P08183); details: PX811019 0.2 mM applied basolaterally
Pgp (Homo sapiens, UniProt P08183), sequence (P08183 whole entry): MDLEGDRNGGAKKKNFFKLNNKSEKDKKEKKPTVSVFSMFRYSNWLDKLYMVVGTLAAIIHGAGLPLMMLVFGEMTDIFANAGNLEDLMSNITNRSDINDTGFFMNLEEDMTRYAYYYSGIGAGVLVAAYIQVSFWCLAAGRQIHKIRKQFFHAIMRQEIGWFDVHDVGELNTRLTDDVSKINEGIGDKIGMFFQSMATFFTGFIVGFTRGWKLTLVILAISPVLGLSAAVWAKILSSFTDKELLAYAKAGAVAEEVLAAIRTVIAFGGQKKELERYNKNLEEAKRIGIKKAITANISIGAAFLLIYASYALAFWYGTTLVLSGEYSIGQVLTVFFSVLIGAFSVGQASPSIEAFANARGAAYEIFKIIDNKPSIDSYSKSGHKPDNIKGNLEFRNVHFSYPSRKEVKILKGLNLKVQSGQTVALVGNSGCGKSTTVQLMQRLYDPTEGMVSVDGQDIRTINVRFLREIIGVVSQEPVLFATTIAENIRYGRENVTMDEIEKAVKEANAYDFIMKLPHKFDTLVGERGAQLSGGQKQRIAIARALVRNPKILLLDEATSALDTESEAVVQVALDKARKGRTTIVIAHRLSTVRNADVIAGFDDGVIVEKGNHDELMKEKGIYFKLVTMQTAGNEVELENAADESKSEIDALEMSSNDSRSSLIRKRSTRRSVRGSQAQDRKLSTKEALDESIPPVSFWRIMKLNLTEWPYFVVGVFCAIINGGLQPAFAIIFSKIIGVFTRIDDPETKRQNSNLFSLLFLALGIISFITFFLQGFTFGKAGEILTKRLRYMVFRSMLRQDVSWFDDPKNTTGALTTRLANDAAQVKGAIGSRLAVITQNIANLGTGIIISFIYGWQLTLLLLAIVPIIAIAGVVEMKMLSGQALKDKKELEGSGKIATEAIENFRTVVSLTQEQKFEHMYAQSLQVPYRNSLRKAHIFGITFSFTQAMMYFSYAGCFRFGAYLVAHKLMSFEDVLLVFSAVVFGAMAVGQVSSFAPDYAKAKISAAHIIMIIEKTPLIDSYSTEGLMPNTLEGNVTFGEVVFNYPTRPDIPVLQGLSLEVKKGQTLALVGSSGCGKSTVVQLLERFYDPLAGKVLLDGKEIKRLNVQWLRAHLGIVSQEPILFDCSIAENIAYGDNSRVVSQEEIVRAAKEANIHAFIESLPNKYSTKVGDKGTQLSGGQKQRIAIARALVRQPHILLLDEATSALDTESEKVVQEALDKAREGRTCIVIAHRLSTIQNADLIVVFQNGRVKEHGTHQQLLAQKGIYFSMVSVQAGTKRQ

clinical [3] = details: human, in vivo
clinical [4] = details: human, in vivo; remark: listed apart in the source
[5] = human, in vivo
urinary copper excretion = details: in vivo, po
[6] = population mean (% CV in table)

## C[C@H]1O[C@@H](O[C@H]2[C@@H](O)C[C@H](O[C@H]3[C@@H](O)C[C@H](O[C@H]4CC[C@@]5(C)[C@H](CC[C@@H]6[C@@H]5C[C@@H](O)[C@]5(C)[C@@H](C7=CC(=O)OC7)CC[C@]65O)C4)O[C@@H]3C)O[C@@H]2C)C[C@H](O)[C@@H]1O [Digoxin]
P-gp
  efflux ratio: 8.06
Pgp [1]
  Papp B→A: 6.08 ×10⁻⁶ cm/s
Pgp [2]
  Papp B-A of Digoxin in presence of PX811019: 5.68±3.03×10^−6 cm/s

## CC(=O)NCCNCCNCCNC(C)=O [DAT, N1,N10-diacetyltriethylenetetramine]
Clinical [3]
  Tmax: 5 to 6 h
Clinical [4]
  CL/F: 5100 mL/min
[5]
  Cmax of DAT relative to MAT: 3-4 fold lower
Estimate (% CV in table)
  Inter-individual variability of CLD/F/frM/frD: 55.9% and 55.9 (18.1) [1.5] %
  Inter-individual variability of VP,D/F/frM/frD: 86.8% and 86.8 (29.4) [2.7] %
[6]
  Apparent volume for DAT, VP,D/F/frM/frD: 197 L and 197 (17.7) L

## CC(=O)NCCNCCNCCN [MAT, N1-acetyltriethylenetetramine]
Clinical [4]
  CL/F: 1270 mL/min
Estimate (% CV in table)
  Inter-individual variability of CLM/F/frM: 41.5% and 41.5 (15.1) [2.9] %
  Inter-individual variability of VP,M/F/frM: 55.1% and 55.1 (17.4) [2.7] %
[6]
  Apparent volume for MAT, VP,M/F/frM: 426 L and 426 (9.8) L
  Mean transit time for MAT formation: 0.381 h and 0.381 (34.2) h

## NCCNCCNCCN.O=C(O)CCC(=O)O.O=C(O)CCC(=O)O [PX811019, triethylenetetramine disuccinate]
Clinical [3]
  Tmax: 1.25 to 2 h
Urinary copper excretion
  Level of cupriuresis versus dose: approximately the same at 435 and 1305 mg PX811019 and increased at the highest dose of 2175 mg

## NCCNCCNCCN [TETA, triethylenetetramine]
Clinical [4]
  CL/F: 2350 mL/min
human, in vivo
  Increase of model predicted VT,T/F for every 100 mg difference from the 750 mg dose: 6.37%
In vivo
  Inter-individual variability of SL · ER0: 58.1% and 58.1 (25.1) [7.8] %
  Slope (SL) of copper excretion versus TETA concentration: 41.8 (mg/L)^−1
